One data set relates to TH-positive neurons. Kind of data set: Transduction of midbrain TH-positive neurons after intra-nigral lentivirus injection. In kind it is in vivo, rat. As to conditions: naïve rats; compared to GFP-transduced rats. The procedure:
A lentivirus encoding G-substrate (Lenti G-substrate) was stereotactically injected immediately dorsal to the substantia nigra in rats. The transduction efficiency of the lentivirus was then determined. Lenti G-substrate was transduced into TH-positive neurons to varying degrees depending upon the neuroanatomical level.
Rats received two 2.75 μl stereotaxic injections of either lenti-empty vector+lenti-eGFP (n=19), lenti-G substrate+lenti-eGFP (n=19), or lenti-YFP (n=14) and delivered at a rate of 0.2 μl/min using microinfusion pumps (Stoelting Co, Wood Dale, Ill.) with 10 min wait times after each injection. […]
Estimates of TH-positive neuronal number within the SN were performed using Stereo Investigator™ software (MBF Bioscience, Williston, Vt.) and stereologic principles (West et al., J. Comp. Neurol. 296: 1-22, 1990). […] For each tissue section analyzed, section thickness was assessed empirically and guard zones of 2 μm thickness were used at the top and bottom of each section. The SN was outlined under low magnification (2.5×) and approximately 50% of the outlined region was analyzed using a systematic random sampling design generated with the following stereologic parameters: grid size, 200×200 μm; counting frame size, 153×140 μm; and dissector height, 16 μm. […]

The subject of another data set is BE(2)-M17 cells. Kind of data set: In vitro protection assays (MTS cell viability, LDH release) against neurotoxins. As to conditions: lentiviral overexpression in BE(2)-M17 cells, toxin 20 hrs. In kind it is cell-based, human. The protocol: Viability of the M17 cells was assessed following exposure to a variety of neurotoxins, each representing different aspects of PD pathology. 6-hydroxydopamine (6-OHDA) causes oxidative stress. MG-132 induces proteasome inhibition. And, MPP+ causes mitochondrial dysfunction by inhibiting Complex I. Cytotoxicity of M17 cells was determined using both cell viability assays and LDH release. G-substrate overexpression in M17 cells was confirmed by Western blot analysis (FIG. 3A) and by immunocytochemistry (FIG. 3B).
BE(2)-M17 cells were transduced with lentivirus expressing control or G-substrate with a multiplicity of infection 15. Cells were grown in Optimem™ (Invitrogen, Carlsbad, Calif.) supplemented with 10% heat-inactivated fetal calf serum (Hyclone, Logan, Utah), nonessential amino acid and sodium pyruvate. Cells were maintained at 37° C., in 5% CO2 humid atmosphere. For the bioassay, cells were plated in 96 well plates at 5000 per well. The next day, cells were treated with various concentrations of 6-OHDA (Sigma), MG-132 (Calbiochem) and MPP+ (Sigma) for 20 hrs. The supernatant was used to determine cytotoxicity using LDH release assay kit (Roche, Indianapolis, Ind.) and the cells remaining on the plate was used to determine cell viability using MTS based solution, CellTiter 96 AQueous One™ solution cell proliferation assay (Promega, Madison, Wis.).
Three different siRNAs for human G-substrate as described herein, a negative control siRNA, and a validated Akt siRNA (Ambion; Austin, Tex.) were used. Cells were plated in 96 well plates at 5000 per well with siRNAs and siPORT NeoFX transfection agent (Ambion, Austin, Tex.). After 48 hrs of incubation with siRNAs, each of the toxicants (6-OHDA, MG-132 or MPP+) were applied to the cells. Cell viability and cytotoxicity was measured after 20 hrs of toxin exposure.
A general note: Release of lactate dehydrogenase indicates damage to the cell membrane.

As to “G-substrate: human wild type G-substrate (SEQ ID NO.: 1) overexpressed from a lentiviral vector”, in the data set with TH-positive neurons, the “total number of TH-positive neurons in midbrain” value was “did not alter”. In addition, the “protection against MPP+-induced toxicity (cell viability, LDH release)” value in the data set with BE(2)-M17 cells was “neither wild-type nor T123A mutant G-substrate overexpression was protective”. Further, in the data set with BE(2)-M17 cells (compared to control), the “neuroprotection against 6-OHDA toxicity (cell viability, LDH release)” value is reported as “neuroprotective” and the “neuroprotection against MG-132 toxicity (cell viability, LDH release)” value is recorded as “neuroprotective”.

Source of the values: patent publication US8545834B2, “G-substrate for the treatment and prevention of parkinson's disease” (The McLean Hospital Corporation, priority 2007, dated 2013).
